One may read the IC50 as the concentration at which inhibition is half-maximal. A low value points to inhibition by little substance.

The source made the active and inactive calls. The calls are words filed in the database; no cut-off is given here.

The target of the first assay is T1, Tyrosine-protein phosphatase non-receptor type 1 (Homo sapiens) (UniProt P18031).
T1 sequence (whole entry): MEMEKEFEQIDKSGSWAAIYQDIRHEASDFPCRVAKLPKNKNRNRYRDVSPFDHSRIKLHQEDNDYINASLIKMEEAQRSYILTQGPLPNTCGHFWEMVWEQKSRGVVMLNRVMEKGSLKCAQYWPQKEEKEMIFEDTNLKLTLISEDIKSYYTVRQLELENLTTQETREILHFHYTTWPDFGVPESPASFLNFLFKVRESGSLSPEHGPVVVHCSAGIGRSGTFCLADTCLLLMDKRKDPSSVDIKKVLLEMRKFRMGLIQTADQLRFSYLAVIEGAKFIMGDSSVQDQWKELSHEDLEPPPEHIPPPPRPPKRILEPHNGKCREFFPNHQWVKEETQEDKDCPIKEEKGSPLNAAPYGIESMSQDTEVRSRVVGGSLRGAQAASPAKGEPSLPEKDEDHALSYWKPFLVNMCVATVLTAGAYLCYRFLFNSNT
The assay is described as follows: Inhibition of PTP1B expressed in Sf9 cells at 400 uM.
Take `COCn1cc(C(O)(C(=O)O)C(F)(F)F)c2ccccc21` (stereo not given): the outcome was inactive.
Still for that read-out and setting: in the case of `COCn1cc(C(O)(C(=O)O)C(F)(F)F)c2cc(OCc3ccccc3)ccc21` (stereo not given) it was “inactive”.

The next assay has as its target T2, Tyrosine-protein phosphatase non-receptor type 1 (Homo sapiens, UniProt P18031).
T2 sequence (P18031 whole entry): T1 sequence (whole entry)
The assay is described as follows: Inhibition of PTP1B expressed in Sf9 cells.
In the case of `Cc1nc(-c2ccc(Cl)cc2)sc1CCOc1cc(C(O)(C(=O)O)C(F)(F)F)ccc1OCCc1ccccc1` (stereo not given), the IC50 stood at 10 µM.
On the same count and under the same terms, under `COCn1cc(C(O)(C(=O)O)C(F)(F)F)c2cc(OCCc3sc(-c4ccc(Cl)cc4)nc3C)ccc21` (stereo not given) stands 59 µM; under `COCn1cc(C(O)(C(=O)O)C(F)(F)F)c2ccc(OCc3ccccc3)cc21` (stereo not given), 382 µM.
Regarding `Cc1nc(-c2ccc(Cl)cc2)sc1CCOc1ccc2c(c1)c(C(O)(C(=O)O)C(F)(F)F)cn2Cc1ccccc1` (stereo not given), the 50% inhibitory concentration (IC50) came out at 27 µM. Against the preceding compound, the IC50 is about 14-fold lower.
Still for that read-out and setting: under `O=C(c1ccccc1)C(c1ccccc1)c1ccc(C(F)(F)P(=O)(O)O)cc1` (stereo not given) stands 1.2 µM; under `Cc1nc(-c2ccc(Cl)cc2)sc1CCOc1cc(C(O)(C(=O)O)C(F)(F)F)ccc1OCc1ccccc1` (stereo not given), 3.2 µM; under `Cc1nc(-c2ccc(Cl)cc2)sc1CCOc1cc(C(O)(C(=O)O)C(F)(F)F)ccc1OCC(=O)O` (stereo not given), 500 µM.
The same measure, in the same setting: in the case of `Cc1nc(-c2ccc(Cl)cc2)sc1CCOc1cccc(C(O)(C(=O)O)C(F)(F)F)c1` (stereo not given) it was 37 µM; in that of `Cc1nc(-c2ccc(Cl)cc2)sc1CCOc1cc(C(O)(C(=O)O)C(F)(F)F)ccc1OCc1ccc(F)cc1` (stereo not given), 23 µM.
Take `CCCCCOc1ccc(C(O)(C(=O)O)C(F)(F)F)cc1OCCc1sc(-c2ccc(Cl)cc2)nc1C` (stereo not given): the IC50 stood at 12 µM.
Same read-out and setting: under `COc1ccc(COc2ccc(C(O)(C(=O)O)C(F)(F)F)cc2OCCc2sc(-c3ccc(Cl)cc3)nc2C)cc1` (stereo not given) stands 12 µM; under `Cc1nc(-c2ccc(Cl)cc2)sc1CCOc1cc(C(O)(C(=O)O)C(F)(F)F)ccc1O` (stereo not given), 105 µM.
For the compound `COC(=O)c1c(O)cccc1OC/C=C/c1ccc(F)c(-c2cc(C(=O)O)no2)c1`, the IC50 came out at 110 µM.
On the same count and under the same terms, under `Cc1nc(-c2ccc(Cl)cc2)sc1CCOc1cc(C(O)(C(=O)O)C(F)(F)F)ccc1OCc1ccncc1` (stereo not given) stands 36 µM.
As to `Cc1nc(-c2ccc(Cl)cc2)sc1CCOc1ccc2c(c1)c(C(O)(C(=O)O)C(F)(F)F)cn2COCC[Si](C)(C)C` (stereo not given), the half-inhibitory concentration (IC50) was found to be 32 µM.
`COCn1cc(C(O)(C(=O)O)C(F)(F)F)c2cccc(OCc3ccccc3)c21` (stereo not given): half-maximal inhibition (IC50) was put at 176 µM.
On the same count and under the same terms, in the case of `COC(=O)c1c(O)cccc1OCCOc1ccc2c(c1)c(C(O)(C(=O)O)C(F)(F)F)cn2COCC[Si](C)(C)C` (stereo not given) it was 123 µM.

The next assay deals with T2, Tyrosine-protein phosphatase non-receptor type 1. The assay is described as follows: Inhibition of PTP1B in a cell-free assay.
For the compound `Cc1nc(-c2ccc(Cl)cc2)sc1CCOc1cc(C(O)(C(=O)O)C(F)(F)F)ccc1OCc1ccccc1` (stereo not given), the half-maximal inhibitory concentration (IC50) is 3 µM. This counts as single-digit micromolar.

Source of the values: ChEMBL document CHEMBL1140554, “2-Aryl-3,3,3-trifluoro-2-hydroxypropionic acids: a new class of protein tyrosine phosphatase 1B inhibitors” (Bioorg Med Chem Lett, 2007).
